These results are taken from US20190010380A1, “METHOD FOR CONTROLLING BACTERIA IN FORMATIONS USING MOLYBDATE” (priority 2017, published 2019).

Where “and” joins values, the source holds several entries; their conditions need not be identical. Identical values can stand only once.

Assay [1] relates to SRB. Nature of the assay: Hydrogen sulfide inhibition in actual produced water from the Eagle Ford shale diluted to 3%, spiked with SRB. In kind it is cell-based, sulfate-reducing bacteria (SRB). The method, then: (§1) Hydrogen sulfide inhibition was tested in mock-produced water approximating water used in hydraulic fracturing operations and was made to a total dissolved solids concentration of 3% with a mixture of instant ocean and NaCl salts. The water was supplemented with nutrients and sulfate to allow SRB to metabolize and create H2S. The water was spiked with SRB and then treated with the various treatment conditions noted below in Table 3 and sealed. Treatment conditions were: Control: No biocide or nitrate.
(§2) 250 ppm 12.3 Glut/Quat Biocide: a mixture of glutaraldehyde and a quarternary ammonia compound was prepared NRB Program: (480 ppm Ca(NO3)2 with 1 ppm live NRB culture. 20 ppm, 40 ppm, 50 ppm, 60 ppm, 80 ppm, 100 ppm, 120 ppm, 150 ppm, and 200 ppm molybdate concentration-.
(§3) H2S was measured at intervals using H2S detecting Draeger tubes. Dissolved H2S was released into the gas phase with the addition of hydrochloric acid so that H2S could be measured with the Draeger tubes to get a complete reading of all H2S produced during the course of the example.
Samples were prepared in accordance with Example 1, except that actual produced water sourced from the Eagle Ford shale that was diluted to 3% using deionized water was used in the samples.

Assay [2] deals with SRB. As to the kind of experiment: Hydrogen sulfide inhibition in mock-produced water spiked with SRB (Draeger tubes). Type of assay: cell-based, sulfate-reducing bacteria (SRB). Particulars: for Total H2S: mock-produced water. How it is done: as §1, §2, §3

On to `[O]=[Mo](=[O])([O-])[O-]` [MoO4, molybdate], for which the “Total H2S” value is reported as 3188 ppm in the assay on SRB [1] (20 ppm MoO4); 234 ppm in the assay on SRB [1] (50 ppm MoO4); 172 ppm in the assay on SRB [1] (80 ppm MoO4); 107 ppm in the assay on SRB [1] (100 ppm MoO4); 160 ppm with SRB [1] (150 ppm MoO4); 110 ppm with SRB [1] (200 ppm MoO4). Moreover, the “Total H2S” value is 1974 ppm in the assay with SRB [2] (20 ppm MoO4); 1066 ppm in the assay on SRB [2] (40 ppm MoO4); 2262 ppm and 1536 ppm in the assay with SRB [2] (50 ppm MoO4); 1846 ppm with SRB [2] (60 ppm MoO4); 1866 ppm in the assay with SRB [2] (80 ppm MoO4); 738 ppm in the assay on SRB [2] (100 ppm MoO4). The entries for the “Total H2S” value in the assay on SRB [2] (120 ppm MoO4), in the assay on SRB [2] (150 ppm MoO4) and in the assay on SRB [2] (200 ppm MoO4) were 890 ppm, 176 ppm and 40 ppm, respectively. Besides, the “Comparison with Glut/Quat biocide and NRB treatment” value is given as “competitive with other proven treatments” with SRB [1] (concentrations of 50 ppm and above); “competitive with other proven treatments” in the assay on SRB [2] (mock produced water, concentrations of 150 ppm and above). For the same molecule, the “Effect on H2S formation” value is “caused a strong reduction in H2S formation” in the assay on SRB [1] (molybdate alone, even at lower concentrations) and “caused a reduction in H2S formation” with SRB [2] (mock produced water, molybdate alone, even at lower concentrations).
